Results: publication PMC9234961 (Journal of Medicinal Chemistry, 2022)
Values joined by “and” are separate entries in the source; they are usually repeats but may differ in a detail not shown here. Equal entries are not always repeated. Where two headings read alike, the source gives them in different places.

Assays:
[1] = Linearity PK studies in SCID mice; settings: solution formulation
OCI-Ly1 = assay: Cell proliferation assay (14 days), OCI-Ly1
Method: Cells were seeded in 96-well culture plates at a density of 2500 cells/well in RPMI-1640 medium (Sigma-
Aldrich) supplemented with 10% FBS (Gibco). Compounds were initially dispensed into 96-well U-bottom
plates using an Echo 550 acoustic dispenser (Labcyte Inc.), then diluted in RPMI-1640 medium and
transferred onto the cells. Cells were treated with 8 compound concentrations in duplicate, ranging from
with compound for 14 days, with medium changes at days 3, 7 and 10 carried out as follows: fresh 96-well
cell culture plates were prepared containing 100 µl medium plus compound at the assay concentrations
(white plates were used on day 10 to optimise luminescence measurement). Assay plates containing cells
were vortexed to mix and cell density in one control well was counted using a Coulter Z2 cell counter
(Beckman Coulter). The volume of medium containing 2500 cells in the control well was calculated and this volume of cells was transferred from every well of the assay plates to the corresponding well of the fresh plates containing compound. After 14 days, CellTiter Glo reagent (Promega) was added to the medium in each well of the assay plate at a ratio of 1:2, mixed on a plate shaker, then incubated at room temperature for 10 minutes. Luminescence was measured using an Envision plate reader (Perkin Elmer) and the relative luminescence at each compound concentration, compared to DMSO alone, was calculated. GI50 were determined using a 4-parameter curve fit in Dotmatics (Bishops Stortford, UK).

DAT = DAT (Homo sapiens, UniProt Q01959); assay: SAFETYScan Transporter, Blocker; assay type: cell-based
Text: (§1) Supplement jm1c02175_si_002.xlsx, sheet "SAFETYScan" | column: RC50 (uM); Max Response

SERT = SERT (Homo sapiens, UniProt P31645); assay: SAFETYScan Transporter, Blocker; assay type: cell-based
Text: as §1

NET = NET (Homo sapiens, UniProt P23975); assay: SAFETYScan Transporter, Blocker; assay type: cell-based
Text: as §1

ADRA1A = biological target: T1, ADRA1A (Homo sapiens, UniProt P35348); assay: SAFETYScan GPCR Calcium Flux, Antagonist; assay type: cell-based
T1 sequence (P35348 1-466): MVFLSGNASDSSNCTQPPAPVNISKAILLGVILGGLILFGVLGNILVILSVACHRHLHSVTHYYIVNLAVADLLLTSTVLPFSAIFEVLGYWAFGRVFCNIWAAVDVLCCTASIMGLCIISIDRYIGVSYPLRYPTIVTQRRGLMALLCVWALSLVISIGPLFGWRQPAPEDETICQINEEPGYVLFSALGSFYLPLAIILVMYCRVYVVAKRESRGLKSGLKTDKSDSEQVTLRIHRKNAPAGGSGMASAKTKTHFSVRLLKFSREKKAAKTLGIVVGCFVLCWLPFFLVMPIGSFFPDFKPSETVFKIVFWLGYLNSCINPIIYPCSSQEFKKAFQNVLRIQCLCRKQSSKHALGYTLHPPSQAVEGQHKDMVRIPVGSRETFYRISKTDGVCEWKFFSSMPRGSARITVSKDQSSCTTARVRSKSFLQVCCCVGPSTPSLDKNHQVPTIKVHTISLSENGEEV
Text: as §1

PDE3A = PDE3A (Homo sapiens, UniProt Q14432); assay: SAFETYScan Non-Kinase Enzymes Enzymatic, Inhibitor; assay type: biochemical
Text: as §1

COX2 = COX2 (Homo sapiens, UniProt P35354); assay: SAFETYScan Non-Kinase Enzymes Enzymatic, Inhibitor; assay type: biochemical
Text: as §1

AChE = AChE (Homo sapiens, UniProt P22303); assay: SAFETYScan Non-Kinase Enzymes Enzymatic, Inhibitor; assay type: biochemical
Text: as §1

PDE4D2 = PDE4D2 (Homo sapiens, UniProt Q08499); assay: SAFETYScan Non-Kinase Enzymes Enzymatic, Inhibitor; assay type: biochemical
Text: as §1

COX1 = COX1 (Homo sapiens, UniProt P23219); assay: SAFETYScan Non-Kinase Enzymes Enzymatic, Inhibitor; assay type: biochemical
Text: as §1

MAOA = MAOA (Homo sapiens, UniProt P21397); assay: SAFETYScan Non-Kinase Enzymes Enzymatic, Inhibitor; assay type: biochemical
Text: as §1

NMDAR (1A/2B) = NMDAR (1A/2B) (Homo sapiens, UniProt Q05586+Q13224); assay: SAFETYScan Ion Channel, Blocker; assay type: cell-based
Text: as §1

NAV1.5 = NAV1.5 (Homo sapiens, UniProt Q14524); assay: SAFETYScan Ion Channel, Blocker; assay type: cell-based
Text: as §1

GABAA = GABAA (Homo sapiens, UniProt P14867+P18507+P47870); assay: SAFETYScan Ion Channel, Blocker; assay type: cell-based; settings: read-out: Max Response
Text: as §1

CAV1.2 = CAV1.2 (Homo sapiens, UniProt Q13936); assay: SAFETYScan Ion Channel, Blocker; assay type: cell-based
Text: as §1

nAChR(a4/b2) = nAChR(a4/b2) (Homo sapiens, UniProt P17787+P43681); assay: SAFETYScan Ion Channel, Blocker; assay type: cell-based
Text: as §1

KvLQT1/minK = KvLQT1/minK (Homo sapiens, UniProt P51787); assay: SAFETYScan Ion Channel, Blocker; assay type: cell-based
Text: as §1

HTR3A = biological target: T2, HTR3A (Homo sapiens, UniProt P46098); assay: SAFETYScan Ion Channel, Blocker; assay type: cell-based
T2 sequence (P46098 24-478): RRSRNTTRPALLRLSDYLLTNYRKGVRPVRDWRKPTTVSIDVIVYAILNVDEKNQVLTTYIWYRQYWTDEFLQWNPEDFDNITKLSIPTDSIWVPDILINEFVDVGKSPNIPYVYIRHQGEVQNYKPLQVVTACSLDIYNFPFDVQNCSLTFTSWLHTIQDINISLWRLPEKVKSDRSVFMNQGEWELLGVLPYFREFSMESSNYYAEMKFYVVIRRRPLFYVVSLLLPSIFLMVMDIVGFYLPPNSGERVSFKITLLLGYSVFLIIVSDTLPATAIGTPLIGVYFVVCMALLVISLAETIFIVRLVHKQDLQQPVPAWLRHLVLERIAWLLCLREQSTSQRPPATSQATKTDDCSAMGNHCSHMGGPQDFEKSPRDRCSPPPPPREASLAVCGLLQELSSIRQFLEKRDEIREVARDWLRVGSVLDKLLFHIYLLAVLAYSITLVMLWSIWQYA
Text: as §1

hERG = hERG (Homo sapiens, UniProt Q12809); assay: SAFETYScan Ion Channel, Blocker; assay type: cell-based
Text: as §1

[2] = biological target: endogenous BCL6 in OCI-Ly1 cells (Homo sapiens, UniProt P41182); assay: cell-based

KvLQT1/minK, sequence (P51787 whole entry): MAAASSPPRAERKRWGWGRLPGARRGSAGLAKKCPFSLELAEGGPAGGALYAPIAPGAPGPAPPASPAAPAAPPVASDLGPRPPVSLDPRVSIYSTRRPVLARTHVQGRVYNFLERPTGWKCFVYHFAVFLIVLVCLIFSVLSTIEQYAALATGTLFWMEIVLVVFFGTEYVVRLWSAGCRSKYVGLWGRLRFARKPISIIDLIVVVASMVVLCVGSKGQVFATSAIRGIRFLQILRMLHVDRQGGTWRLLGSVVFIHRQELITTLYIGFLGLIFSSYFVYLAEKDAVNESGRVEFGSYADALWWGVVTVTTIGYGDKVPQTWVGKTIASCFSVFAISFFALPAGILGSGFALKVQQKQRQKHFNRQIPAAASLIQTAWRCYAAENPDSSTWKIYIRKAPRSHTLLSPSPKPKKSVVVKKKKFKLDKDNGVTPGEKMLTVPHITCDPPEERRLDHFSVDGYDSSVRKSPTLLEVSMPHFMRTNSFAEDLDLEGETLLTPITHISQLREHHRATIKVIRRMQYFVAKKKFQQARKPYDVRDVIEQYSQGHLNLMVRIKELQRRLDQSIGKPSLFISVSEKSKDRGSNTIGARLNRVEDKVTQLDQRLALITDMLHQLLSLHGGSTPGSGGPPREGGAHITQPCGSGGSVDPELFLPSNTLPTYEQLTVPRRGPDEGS
hERG, sequence (Q12809 whole entry): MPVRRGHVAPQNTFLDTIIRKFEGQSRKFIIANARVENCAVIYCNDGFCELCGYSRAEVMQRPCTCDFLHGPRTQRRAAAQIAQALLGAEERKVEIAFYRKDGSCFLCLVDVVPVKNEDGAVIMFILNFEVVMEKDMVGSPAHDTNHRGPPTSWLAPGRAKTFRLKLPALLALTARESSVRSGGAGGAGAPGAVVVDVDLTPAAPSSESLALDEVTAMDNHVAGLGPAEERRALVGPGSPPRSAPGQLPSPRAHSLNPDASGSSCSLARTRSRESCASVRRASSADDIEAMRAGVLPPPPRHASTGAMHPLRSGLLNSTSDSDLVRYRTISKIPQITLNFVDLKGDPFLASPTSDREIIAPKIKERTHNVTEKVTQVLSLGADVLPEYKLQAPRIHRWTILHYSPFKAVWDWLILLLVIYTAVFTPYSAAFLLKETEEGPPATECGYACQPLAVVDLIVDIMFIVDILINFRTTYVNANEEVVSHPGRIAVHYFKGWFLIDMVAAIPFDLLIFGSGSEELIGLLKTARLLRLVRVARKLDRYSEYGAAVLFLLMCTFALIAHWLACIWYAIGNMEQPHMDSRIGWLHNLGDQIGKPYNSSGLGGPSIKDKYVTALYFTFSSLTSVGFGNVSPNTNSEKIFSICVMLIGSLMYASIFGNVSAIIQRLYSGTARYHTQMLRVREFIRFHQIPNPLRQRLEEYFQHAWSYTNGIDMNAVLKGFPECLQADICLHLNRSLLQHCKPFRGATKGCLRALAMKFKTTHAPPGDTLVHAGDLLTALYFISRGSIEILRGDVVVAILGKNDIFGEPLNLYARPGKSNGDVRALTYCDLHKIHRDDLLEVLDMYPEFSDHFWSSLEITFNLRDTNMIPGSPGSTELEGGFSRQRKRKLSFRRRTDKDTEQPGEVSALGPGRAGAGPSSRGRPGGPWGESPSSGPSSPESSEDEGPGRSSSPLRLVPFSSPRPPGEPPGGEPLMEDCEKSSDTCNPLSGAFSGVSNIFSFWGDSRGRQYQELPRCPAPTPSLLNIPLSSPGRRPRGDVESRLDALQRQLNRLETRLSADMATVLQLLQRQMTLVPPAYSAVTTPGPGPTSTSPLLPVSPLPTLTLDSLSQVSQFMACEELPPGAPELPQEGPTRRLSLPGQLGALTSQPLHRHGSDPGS
PDE3A, sequence (Q14432 whole entry): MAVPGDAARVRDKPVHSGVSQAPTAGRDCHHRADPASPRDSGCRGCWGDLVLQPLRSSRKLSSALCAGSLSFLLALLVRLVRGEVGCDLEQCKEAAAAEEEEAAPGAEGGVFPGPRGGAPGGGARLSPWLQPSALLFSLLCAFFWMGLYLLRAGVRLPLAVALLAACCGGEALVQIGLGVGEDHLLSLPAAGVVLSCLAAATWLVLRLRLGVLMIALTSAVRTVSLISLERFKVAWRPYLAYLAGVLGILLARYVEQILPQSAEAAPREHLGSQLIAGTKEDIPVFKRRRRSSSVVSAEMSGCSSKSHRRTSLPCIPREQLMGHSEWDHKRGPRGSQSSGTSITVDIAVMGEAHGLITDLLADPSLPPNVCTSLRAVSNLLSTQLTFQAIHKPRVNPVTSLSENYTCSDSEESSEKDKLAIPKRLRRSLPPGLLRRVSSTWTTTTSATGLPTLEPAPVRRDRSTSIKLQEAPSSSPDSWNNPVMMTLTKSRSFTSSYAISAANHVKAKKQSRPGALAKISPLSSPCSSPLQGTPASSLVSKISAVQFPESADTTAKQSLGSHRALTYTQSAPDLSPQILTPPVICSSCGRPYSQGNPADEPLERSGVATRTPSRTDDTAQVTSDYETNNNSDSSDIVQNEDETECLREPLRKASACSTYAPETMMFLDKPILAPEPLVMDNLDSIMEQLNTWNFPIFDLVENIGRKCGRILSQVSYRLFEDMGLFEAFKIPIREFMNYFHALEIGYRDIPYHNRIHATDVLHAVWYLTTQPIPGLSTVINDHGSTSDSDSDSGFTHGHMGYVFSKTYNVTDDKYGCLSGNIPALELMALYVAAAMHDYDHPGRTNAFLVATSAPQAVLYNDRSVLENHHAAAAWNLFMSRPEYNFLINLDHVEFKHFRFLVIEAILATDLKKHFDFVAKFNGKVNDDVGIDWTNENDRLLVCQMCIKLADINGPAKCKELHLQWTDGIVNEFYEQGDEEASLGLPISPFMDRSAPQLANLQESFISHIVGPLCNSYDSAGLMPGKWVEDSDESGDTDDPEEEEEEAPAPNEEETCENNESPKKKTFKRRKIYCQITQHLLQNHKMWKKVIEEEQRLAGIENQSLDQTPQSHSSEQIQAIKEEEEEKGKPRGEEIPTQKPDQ
SERT, sequence (P31645 whole entry): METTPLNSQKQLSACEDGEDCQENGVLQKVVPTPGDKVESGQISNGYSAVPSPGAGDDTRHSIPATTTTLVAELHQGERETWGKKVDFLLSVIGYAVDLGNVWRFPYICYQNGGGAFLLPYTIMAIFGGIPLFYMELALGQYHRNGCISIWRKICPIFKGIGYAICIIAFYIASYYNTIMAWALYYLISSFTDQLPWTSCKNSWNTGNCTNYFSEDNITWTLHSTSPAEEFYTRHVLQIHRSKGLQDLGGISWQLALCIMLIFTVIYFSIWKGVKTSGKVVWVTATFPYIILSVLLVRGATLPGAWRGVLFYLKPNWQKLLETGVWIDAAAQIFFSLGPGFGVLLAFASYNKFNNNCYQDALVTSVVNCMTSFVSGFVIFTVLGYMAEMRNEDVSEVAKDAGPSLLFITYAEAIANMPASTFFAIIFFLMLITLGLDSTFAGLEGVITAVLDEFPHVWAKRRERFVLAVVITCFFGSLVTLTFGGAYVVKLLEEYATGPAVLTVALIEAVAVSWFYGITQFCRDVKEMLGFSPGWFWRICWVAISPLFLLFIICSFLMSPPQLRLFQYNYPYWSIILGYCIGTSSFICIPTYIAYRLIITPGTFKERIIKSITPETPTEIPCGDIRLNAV
COX1, sequence (P23219 24-599): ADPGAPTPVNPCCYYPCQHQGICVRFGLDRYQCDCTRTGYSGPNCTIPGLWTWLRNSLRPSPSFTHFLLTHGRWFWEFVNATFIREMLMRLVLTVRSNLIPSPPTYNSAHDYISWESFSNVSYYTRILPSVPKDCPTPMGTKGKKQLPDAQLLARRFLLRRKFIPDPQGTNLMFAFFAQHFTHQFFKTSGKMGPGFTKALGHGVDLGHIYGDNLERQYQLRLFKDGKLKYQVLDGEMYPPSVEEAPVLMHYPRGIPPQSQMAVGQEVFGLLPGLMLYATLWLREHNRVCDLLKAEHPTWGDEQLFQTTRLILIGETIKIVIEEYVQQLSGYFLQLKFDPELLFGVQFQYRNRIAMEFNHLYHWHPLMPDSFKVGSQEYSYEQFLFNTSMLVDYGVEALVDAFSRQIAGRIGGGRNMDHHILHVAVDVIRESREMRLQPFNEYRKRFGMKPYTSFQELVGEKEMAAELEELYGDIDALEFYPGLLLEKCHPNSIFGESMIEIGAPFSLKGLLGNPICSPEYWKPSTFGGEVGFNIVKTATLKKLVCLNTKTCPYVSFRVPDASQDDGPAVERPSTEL
AChE, sequence (P22303 32-614): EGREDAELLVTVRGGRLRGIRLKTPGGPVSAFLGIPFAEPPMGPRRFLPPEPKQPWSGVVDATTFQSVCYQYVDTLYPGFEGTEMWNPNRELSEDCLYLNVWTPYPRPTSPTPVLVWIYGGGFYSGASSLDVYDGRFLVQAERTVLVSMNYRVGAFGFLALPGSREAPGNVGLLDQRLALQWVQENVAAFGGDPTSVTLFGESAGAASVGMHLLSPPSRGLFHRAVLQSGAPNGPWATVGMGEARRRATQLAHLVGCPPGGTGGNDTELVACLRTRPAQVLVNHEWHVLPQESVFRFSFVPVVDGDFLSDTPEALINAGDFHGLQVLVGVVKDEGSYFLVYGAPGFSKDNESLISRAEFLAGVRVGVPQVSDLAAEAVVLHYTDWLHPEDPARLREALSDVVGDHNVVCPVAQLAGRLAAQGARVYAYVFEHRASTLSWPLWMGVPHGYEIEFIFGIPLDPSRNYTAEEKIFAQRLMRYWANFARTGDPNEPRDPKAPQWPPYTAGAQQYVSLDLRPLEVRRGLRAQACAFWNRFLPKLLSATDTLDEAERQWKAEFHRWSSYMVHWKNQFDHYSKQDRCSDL

C[C@H]1C[C@@H](O)CN(c2ncc(Cl)c(Nc3ccc4c(c3)c3c(c(=O)n4C)OCC(F)(F)[C@H](C4CC4)N3)n2)C1 [12a CCT373566, (S)-10-((5-Chloro-2-((3R,5S)-3-hydroxy-5-methylpiperidin-1-yl)pyrimidin-4-yl)amino)-2-cyclopropyl-3,3-difluoro-7-methyl-1,2,3,4-tetrahydro-[1,4]oxazepino[2,3-c]quinolin-6(7H)-one]
exposure versus dose [1]: exposure increased with the dose | OCI-Ly1 GI50 (OCI-Ly1; 14-day proliferation assay): Very potent growth inhibition | GI50 (OCI-Ly1; Homo sapiens, OCI-Ly1, 336 h, read-out: OCI-Ly1 GI50): 0.0021 µM | Emax (DAT; read-out: Max Response): 0% | IC50 (DAT; read-out: RC50 (IC50)): > 10 µM | Emax (SERT; read-out: Max Response): 0% | IC50 (SERT; read-out: RC50 (IC50)): > 10 µM | Emax (NET; read-out: Max Response): 8.36% | IC50 (NET; read-out: RC50 (IC50)): > 10 µM | Emax (ADRA1A; read-out: Max Response): 0% | IC50 (ADRA1A; read-out: RC50 (IC50)): > 10 µM | Emax (PDE3A; read-out: Max Response): 0.2% | IC50 (PDE3A; read-out: RC50 (IC50)): > 10 µM | Emax (COX2; read-out: Max Response): 0% | IC50 (COX2; read-out: RC50 (IC50)): > 10 µM | Emax (AChE; read-out: Max Response): 3.36% | IC50 (AChE; read-out: RC50 (IC50)): > 10 µM | Emax (PDE4D2; read-out: Max Response): 10.8% | IC50 (PDE4D2; read-out: RC50 (IC50)): > 10 µM | Emax (COX1; read-out: Max Response): 33% | IC50 (COX1; read-out: RC50 (IC50)): > 10 µM | Emax (MAOA; read-out: Max Response): 0% | IC50 (MAOA; read-out: RC50 (IC50)): > 10 µM | Emax (NMDAR (1A/2B); read-out: Max Response): 0% | IC50 (NMDAR (1A/2B); read-out: RC50 (IC50)): > 10 µM | Emax (NAV1.5; read-out: Max Response): 1.35% | IC50 (NAV1.5; read-out: RC50 (IC50)): > 10 µM | Emax (GABAA): 1.51% | Emax (CAV1.2; read-out: Max Response): 0% | IC50 (CAV1.2; read-out: RC50 (IC50)): > 10 µM | Emax (nAChR(a4/b2); read-out: Max Response): 7.49% | IC50 (nAChR(a4/b2); read-out: RC50 (IC50)): > 10 µM | Emax (KvLQT1/minK; read-out: Max Response): 13.1% | IC50 (KvLQT1/minK; read-out: RC50 (IC50)): > 10 µM | Emax (HTR3A; read-out: Max Response): 15% | IC50 (HTR3A; read-out: RC50 (IC50)): > 10 µM | Emax (hERG; human, read-out: Max Response): 93% | IC50 (hERG; read-out: RC50 (IC50)): 1.44 µM | Dmax ([2]; OCI-Ly1, read-out: MSD degrader assay [OCI-LY1] Dmax individual replicates, single replicate values): 89.8% | Dmax ([2]; OCI-Ly1, read-out: MSD degrader assay [OCI-Ly1] Dmax, mean maximal degradation of BCL6, OCI-Ly1 cells, 2 h): 91.5% | degradation of BCL6 (in words) ([2]; OCI-Ly1 MSD assay): potently degrading isomer | MSD degrader assay [OCI-Ly1] DC50 ([2]; geometric mean, OCI-Ly1 cells, 2 h incubation): sub-nanomolar | MSD degrader assay [OCI-Ly1] Dmax ([2]; mean maximal degradation of BCL6, OCI-Ly1 cells, 2 h): > 90% | MSD degrader assay [OCI-LY1] pDC50 mean ([2]; mean of replicates): 9.1465 | DC50 ([2]; read-out: Calculated free DC50 [OCI-Ly1], DC50 corrected with fu,media): 0.088 nM | DC50 ([2]; read-out: MSD degrader assay [OCI-LY1] DC50 individual replicates, single replicate values): 1 nM and 0.9 nM (4×) and 1.5 nM and 0.5 nM (2×) and 0.8 nM and 1.2 nM and 0.3 nM and 0.6 nM (3×) and 0.4 nM (2×) and 1.3 nM | DC50 ([2]; read-out: MSD degrader assay [OCI-Ly1] DC50, geometric mean, OCI-Ly1 cells, 2 h incubation): 0.7 nM | MSD degrader assay [OCI-LY1] Dmax individual replicates ([2]; single replicate values): 90.3% and 91.7% and 95.3% (2×) and 94.5% and 93.1% and 94.4% and 94.1% and 92.7% and 96.2% and 84.1% and 84.0% and 89.6% and 88.7% and 89.5% and 92.4%
